From US9914955B2, “Genetically encoded FRET-based MMP-9 activity biosensor and use thereof” (Instytut Biologii Doświadczalnej im. Marcelego Nenckiego …, priority 2013, dated 2018)

Experiments:
HEK293 cell lysate = assay: Baseline cleavage of the biosensor in untreated HEK293 lysate, western blot; format: biochemical
Protocol: Two days post-transfection HEK293 cells were washed one with PBS, scraped from the plate and lysed for 1 h at 4° C. with the following buffer: 50 mM Tris-Cl pH 7.5, 1% Triton X-100, 10 mM CaCl2, 0.02% NaN3, 1 μM ZnCl2. The lysis was performed without protease inhibitors since it was feared that they might block the activity of our auto-activating MMP-9. The lysate was then centrifuged at 13400 rpm for 15′ at 4° C. to remove cell debris. Equal amount of the cleared lysate were used in the subsequent reactions. […] GM6001 inhibitor was used in 25 μM final concentration. Reactions were stopped at either 30′, 1 h, 4 h or after overnight incubation at 37° C. with the addition of SDS-PAGE Sample Buffer and heating to 100° C. for 10 minutes. Sensor was detected on Western Blot with the anti-GFP antibody.

[1] = tested on: human auto-activating MMP-9; assay: In vitro cleavage of the biosensor in HEK293 lysate by auto-activating MMP-9, western blot; format: biochemical; settings: inhibitor 25 μM final concentration

CNC(=O)[C@H](Cc1c[nH]c2ccccc12)NC(=O)[C@@H](CC(=O)NO)CC(C)C [GM6001]
effect of inhibitor on baseline cleavage of the biosensor (HEK293 cell lysate): at least partially, blocked | effect of inhibitor on biosensor cleavage by auto-activating MMP-9 [1]: blocked
